This is an account of results in patent US20170227545A1, “REACTIVITY-BASED SCREENING FOR NATURAL PRODUCT DISCOVERY” (THE BOARD OF TRUSTEES OF THE UNIVERSITY OF ILLINOIS, priority 2014, published 2017).

Common to all, as to format: cell-based
The test system of test [1] is Gram-negative (Proteobacteria) organisms. The conditions noted are these: all tested Gram-negatives, result in words.
For test [2], the system named is Neisseria sicca ATCC 29256. Description: Antibiotic activity, microbroth dilution MIC. A general note: Broth dilution looks for growth in wells or tubes with falling amounts of substance.
In test [3] the test system is Bacillus anthracis strain Sterne. Description: microbe, parasite or virus in culture.
The test system of another test is Fusarium virguliforme. Description: Antifungal activity, microbroth dilution MIC.
The test system of test [4] is Pseudomonas putida KT2440. Description: Antibiotic activity, microbroth dilution MIC.
The test system of test [5] is Gram-positive (Firmicutes) bacteria. The conditions noted are these: several Gram-positive bacteria, result in words.
The subject of a further test is E. coli MC4100. Description: Antibiotic activity, microbroth dilution MIC. Conditions: 37° C. 12 h.
For another test, the system named is Talaromyces stipitatus. Description: Antifungal activity, microbroth dilution MIC.
In test [6] the test system is Enterococcus faecalis U503 (vancomycin-resistant). Kind of test: Antibiotic activity, microbroth dilution MIC.
In test [7] the test system is Listeria monocytogenes strain 4b F2365. Kind of test: Antibiotic activity, microbroth dilution MIC.
The next test deals with Saccharomyces cerevisiae. Description: Antifungal activity, microbroth dilution MIC.
The test system of another test is fungal strains. Kind of test: Growth inhibition, panel of fungal strains. The conditions noted are these: result in words.
Test [8] has as its system Staphylococcus aureus USA300 (methicillin-resistant). Description: Antibiotic activity, microbroth dilution MIC.
For a further test, the system named is Aspergillus niger. Kind of test: Antifungal activity, microbroth dilution MIC.
For test [9], the system named is Bacillus subtilis strain 168. Description: Antibiotic activity, microbroth dilution MIC.
Where [10] appears, read: microbroth dilution, 37° C. 12 h.
[11] abbreviates: microbroth dilution, 30° C. 36 h.

Values after ≈ are worked out from the molar mass of the structure shown. Read-outs that look alike come from different tables or passages of the source.

Turning to `C=C1NC(=O)CNC(=O)[C@H](CCCCN)NC(=O)[C@@]2(C)NC(=O)/C(=C/C)NC(=O)[C@@H]3CSC(=N3)[C@H](CC(N)=O)NC(=O)c3ccc(nc3[C@@H](C)NC(=O)[C@@H]3CCCN3C1=O)-c1nc(cs1)C1=N[C@@H](CS1)C(=O)NC(=C)c1nc(cs1)-c1nc(cs1)C1=N[C@H](CS1)C(=O)N[C@H](C(=O)O)CS2` [cyclothiazomycin C], the “activity against Gram-negative (Proteobacteria) organisms” value in [1] is “inactive”. The MIC in [2] (ATCC29256, 37° C. 12 h, read-out: MIC) was more than 64 µg/mL; in [3] (12 h), 1 µg/mL (≈ 0.673 µM); with Fusarium virguliforme (60 h), more than 64 µg/mL; in test [4] (KT2440, 37° C. 12 h, read-out: MIC), more than 64 µg/mL; in the test on E. coli MC4100 (MC4100, Escherichia coli, read-out: MIC) it was more than 64 µg/mL; with Talaromyces stipitatus (36 h), more than 64 µg/mL. For the same compound, the MIC in [6] (12 h) is 32 to 64 µg/mL (≈ 21.5 to 43 µM); in test [7] (4BF2365, 37° C. 12 h, read-out: MIC), 16 µg/mL (≈ 10.8 µM); against Saccharomyces cerevisiae (36 h), more than 64 µg/mL; in test [8] (USA300, 12 h), 16 µg/mL (≈ 10.8 µM); in the test with Aspergillus niger (36 h), more than 64 µg/mL; in test [9] (168, 37° C. 12 h, read-out: MIC), 4 µg/mL (≈ 2.69 µM). The “growth inhibitory action toward Gram-positive (Firmicutes) bacteria” value in test [5] is given as “exhibited growth inhibitory action”. Also, the “growth inhibitory action toward fungal strains” value with fungal strains is given as “none was observed”.
For cyclothiazomycin B [reference compound], the “activity against Gram-negative (Proteobacteria) organisms” value in [1] is “little to no activity”. Also, the MIC is more than 64 µg/mL in test [2] (37° C. 12 h); 1 µg/mL in test [3] (setting [10]); 64 µg/mL in the test with Fusarium virguliforme (microbroth dilution, 30° C. 60 h); more than 64 µg/mL in test [4] (37° C. 12 h); 64 µg/mL in the test with E. coli MC4100 (Escherichia coli); 64 µg/mL against Talaromyces stipitatus (setting [11]). The MIC is 32 µg/mL in [6] (setting [10]); 8 µg/mL in [7] (37° C. 12 h); 64 µg/mL against Saccharomyces cerevisiae (setting [11]); 4 µg/mL in test [8] (setting [10]); more than 64 µg/mL against Aspergillus niger (setting [11]); 2 µg/mL in [9] (37° C. 12 h). The “growth inhibitory action toward fungal strains” value in the test with fungal strains is on record as “little to no activity”.
